Assay results reported in patent US4122184A, “Benzimidazole insecticides” (priority 1977, dated 1978).

How the values were obtained:
Assay type in all cases: in vivo
Asparagus Beetles Larvae = test: Field trial, contact poison test
How it was run: (§1)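 Read-out: mortality rating 0–9 (0 = 0-10 percent, 9 = 91-100 percent) at 24/48/72 h, averaged per concentration. Insects were sprayed on potted-in-water host plants using an atomizer at 10 psi, with dead insects caught on paper below.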

Corn Earworm = test: Field trial, contact poison test
How it was run: as §1

Fall Webworm = test: Field trial, contact poison test
How it was run: as §1

Imported Cabbage Worm = test: Field trial, contact poison test
How it was run: as §1

Acute dermal toxicity = settings: rabbit
From the text: While the compounds of this invention resemble the organic phosphates in being toxic upon ingestion, they differ from the organic phosphates in having a low toxicity when applied to the skin. The following charts give the estimated acute oral and acute dermal toxicities of 2,6-bis(trifluoromethyl)-4-nitrobenzimidazole in several species of mammals.

SMILES: O=[N+]([O-])c1cc(C(F)(F)F)cc2nc(C(F)(F)F)[nH]c12 [A, 2,6-bis(trifluoromethyl)-4-nitrobenzimidazole]
- average mortality rating (Asparagus Beetles Larvae; 10 ppm): 8
- average mortality rating (Asparagus Beetles Larvae; 25 ppm): 8
- average mortality rating (Asparagus Beetles Larvae; 50 ppm): 9 (91-100 percent mortality)
- average mortality rating (Corn Earworm; 62.5 ppm): 0 (0-10 percent)
- average mortality rating (Corn Earworm; 125 ppm): 0 (0-10 percent)
- average mortality rating (Corn Earworm; 250 ppm): 0 (0-10 percent)
- average mortality rating (Corn Earworm; 500 ppm): 0 (0-10 percent)
- average mortality rating (Corn Earworm; 750 ppm): 1
- average mortality rating (Fall Webworm; 125 ppm): 3
- average mortality rating (Fall Webworm; 250 ppm): 5
- average mortality rating (Fall Webworm; 500 ppm): 3
- average mortality rating (Fall Webworm; 750 ppm): 9 (91-100 percent mortality)
- average mortality rating (Imported Cabbage Worm; 125 ppm): 3
- average mortality rating (Imported Cabbage Worm; 250 ppm): 4
- average mortality rating (Imported Cabbage Worm; 500 ppm): 3
- average mortality rating (Imported Cabbage Worm; 750 ppm): 7
- LD50 (Acute dermal toxicity; in vivo, topical or ocular, male, read-out: Est. LD50): > 500 mg/kg
- Est. LD50 (Acute dermal toxicity; female): > 500 mg/kg
